For one test, the system named is PD-1. As to conditions: mouse, in vivo.
In another test the test system is 8.7 kb DNA fragment. The test can be described thus: in vitro DNA cleavage assay. The note with it: Cas9 RNP with sgRNA, 37° C. Format: biochemical. The method, then:
Cas9 RNPs were assembled by incubating purified spCas9 or TAT-4×Myc NLS-Cas9 with sgRNA targeting a 8.7 kb DNA fragment, and incubated with the DNA fragment for 1, 5, 10, and 15 min at 37° C. The reaction was stopped and the DNA products were separated on a 0.8% agarose gel. Uncut band (˜8.7 kb) and two cleaved bands (˜2.7 kb and 6 kb) are shown on the gel.
TAT-4×Myc NLS-Cas9 expression construct was created by replacing the 4×SV40 NLS (PKKKRKV (SEQ ID NO: 1423)) at the N-terminus of Cas9 (Staahl et al., (2017) Nat Biotechnol 35, 431-434) with 4×Myc NLS ([…] (SEQ ID NO: 1)) with linker -G-G-S- between Myc NLS. The sequence of the TAT cell penetrating peptide ([…] (SEQ ID NO: 2)), derived from the trans-activating transcriptional activator (Tat) from HIV-1 (Frankel and Pabo, 1988; Green and Loewenstein, 1988), was added to the N-terminus, and TAT-4×Myc NLS-Cas9 was cloned into a bacterial recombinant protein expression vector (Gootenberg et al., 2017) with a Twin-Strep and SUMO tag (FIG. 1A). Next, TAT-4×Myc NLS-Cas9 protein was purified by Strep-Tactin affinity chromatography followed by on-column SUMO protease digestion, ion exchange chromatography (IEC), and size exclusion chromatography (SEC) (FIG. 1B) (Gootenberg et al., (2017) Science 356, 438-442).

In the next test the test system is CD45.2. Briefly: in vitro editing in mouse primary CD8 T cells, CD45.2 knockdown by flow cytometry. Type of test: cell-based. The note with it: CD45.2 sgRNA_1, 5 μM TAT-4×Myc NLS-Cas9, 75 μM dTAT-HA2, Day 4. The protocol:
FIG. 3C: An example of flow plots showing the percentage of sgRNA+Cas9+ for Rosa and CD45.2.
FIG. 3D: Target genes are knocked down during Days 1-5 in vitro culture as measured by flow cytometry.
RN2-Cas9 cells were infected with retrovirus expressing sgRNA and mCherry, and CD45.2 expression level was measured by flow cytometry after 3 days of infection. Both sgRNAs targeting CD45.2 efficiently knocked down CD45.2 compared to sgRNAs targeting Rosa26 (FIG. 3A). It was next tested whether TAT-4×Myc Cas9 can edit the genome in mouse primary CD8 T cells. Briefly, on Day −2, primary CD8 T cells were isolated from 3-month-old mouse spleen and activated by CD3, […], and IL-2 for 24 hours. On Day −1, the activated cells were infected with retrovirus expressing sgRNA and mCherry for 24 hours. Cells were then treated with 5 μM TAT-4×Myc NLS-Cas9 (with GFP tag) and 75 μM dTAT-HA2, and incubated in RPMI 1640 supplied with 1% FBS and 50 μM 2-mercaptoethanol in a 37° C. incubator for 40 min. […] CD45.2 expression level was measured by flow cytometry from Day 1 to Day 5. […] The stability of TAT-4×Myc NLS-Cas9 was evaluated in the cells by measuring normalized Mean Fluorescence Intensity (MFI) of GFP.
In general terms: In flow cytometry, cells or beads pass a laser one at a time.

In test [1] the test system is EL4 mCherry reporter cell line. The test can be described thus: EL4 mCherry reporter gene editing, loss of mCherry by flow cytometry. As to conditions: 5 μM TAT-4×Myc NLS-Cas9, 75 μM dTAT-HA2, 30 min, no FBS. For orientation: Reporter assays use an easily measured gene product as a stand-in for the process of interest.
For the next test, the system named is CD90.2. Briefly: in vitro editing in mouse primary CD8 T cells, CD90.2 knockdown by flow cytometry. Type of test: cell-based.
A further test relates to Thy1 and Ptprc genes. Briefly: Cas9-PAGE with retroviral sgRNA in murine primary CD8 T cells ex vivo (flow cytometry, TIDE assay). Format: cell-based. The note with it: sgThy1_IG1 or sgNeg, various concentrations of TH, 5 μM Cas9-T6N^CPP, 30 min. The method, then: FIG. 12A: A schematic of the experimental workflow of evaluating the PAGE system in murine primary CD8 T cells ex vivo. Murine primary T cells were activated with anti-CD3, anti-CD28 and IL-2, followed by retroviral transduction with a sgRNA expression vector linked with mCherry fluorescent marker. […] Gene editing was evaluated at various time points by flow cytometry against indicated gene products or via direct sanger sequencing of the targeted genomic regions. […] Cells were transduced with either sgThy1_IG1 or sgNeg, followed by 30 min incubation with various concentrations of TH and 5 μM Cas9-T6N^CPP. Flow cytometry analysis was performed at the indicated days post-treatment. […] FIG. 12C: Mean Fluorescent Intensity (MFI) quantification of the flow cytometry analysis at 4 days post-treatment in FIG. 12B (left panel). […] FIG. 12E: Quantification of live cell recovery of CD8 T cells treated with an increased concentration of TH. […] Genomic DNA was isolated at day 6 post-treatment of PAGE, sanger sequenced, and followed by quantification via an online TIDE analysis tool. sgThy1_IG1, sgThy1_IG2, sgThy1_IG3, sgRNAs targeting the Immunoglobulin domain of Thy1 gene; sgPtprc_CAT1 and sgPtprc_TM1, sgRNAs targeting either the catalytic domain or transmembrane domain of Ptprc gene; sgNeg, an sgRNA targeting Ano9 gene was used as a negative control here. […]

In the case of “TAT-4×NLS^MYC-Cas9-2×NLS^SV40-sfGFP [TAT-4×Myc NLS-Cas9]”, in the test on PD-1, the PD-1 expression is ~20%; the “percentage of sgRNA^+P14 T cell population and total number of sgRNA^+P14 T cells” value was “increased”. The DNA cleavage result in the test on 8.7 kb DNA fragment is “efficiently cleaved DNA”. In addition, the “percentage of CD45.2 knockdown cells, maximum” value with CD45.2 is reported as ~60%. Besides, in test [1], the “percentage of mCherry^− cells” value is reported as 92.9%. Also, the “percentage of CD90.2 knockdown cells, maximum” value in the test with CD90.2 (CD90.2 sgRNA_2, 5 μM TAT-4×Myc NLS-Cas9, 75 μM dTAT-HA2, Day 3) is ~90%. The “percentage of CD90.2 knockdown cells, maximum” value in the test on CD90.2 (CD90.2 sgRNA_3, 5 μM TAT-4×Myc NLS-Cas9, 75 μM dTAT-HA2, Day 3) is ~70%.

As for dTAT-HA2 [TH], the “Cas9-T6N^CPP gene editing in murine primary CD8 T cells” value in the test with Thy1 and Ptprc genes was “promoted Cas9-T6N^CPP gene editing”.

(Values after US20240263159A1, “GENE EDITING IN PRIMARY IMMUNE CELLS USING CELL PENETRATING CRISPR-CAS SYSTEM” (THE TRUSTEES OF THE UNIVERSITY OF PENNSYLVANIA, priority 2021, published 2024).)
